# Measurements published in US9616033B2, “Selective metabolic approach to increasing oral bioavailability of phenylephrine and other phenolic bioactivities” (VIRGINIA COMMONWEALTH UNIVERSITY, priority 2011, dated 2017).
# “Also recorded” adds a separate entry of the source.
# Experiments:
# LS180 cells [1] = assay: Inhibition of resveratrol metabolism (disappearance) in LS180 cells; format: cell-based, human; conditions: for activity at 100 µM: Homo sapiens, read-out: Extent of RES Disappearance (as % of control); for inhibition of resveratrol metabolism (in words): 4 hours
# LS180 cells [2] = assay: Inhibition of 2-methoxyestradiol metabolism (disappearance) in LS180 cells; format: cell-based, human; conditions: for activity at 100 µM: Homo sapiens, LS180, 1 h
# [3] = tested on: human LS180 intestinal cells; assay: Inhibition of phenylephrine (PE) metabolism (PE disappearance) in LS180 cells; format: cell-based; conditions: for activity at 100 µM: Homo sapiens; for effect on PE disappearance / PE metabolism (in words): inhibitor 100 μM
# Method: The inhibitors which can be used in the practice of the invention are wide ranging. […] The LS180 model provides an inexpensive method to imitate the human intestine, with regards to PE metabolism. […] For the LS180 experiments, LS180 cells are seeded at the concentration of 1.9×10^5 cells/ml in 12-well plate. […] After incubation, medium is removed and stored at −80° C. until analysis. The metabolic reactions are quenched by placing 12-well plate on ice and quickly rinsing each well. The cell extraction of metabolites is carried out with 1 ml 2% acetic acid solution in methanol. Cells are scraped and collected in centrifuge tubes. The suspension is mixed for 2-3 min and centrifuged at 18,000 rcf for 5 min. Supernatants (800 μl) are collected. After scraping, each well is washed twice as above. The washing solution is collected with the supernatant and dried under reduced pressure. The residue is re-suspended in 35 μl water and analyzed by HPLC. […] The data are processed with one-way ANOVA followed by Dunnett's post test; * indicates p<0.05.
# Phenolic compounds were selected from FDA's “GRAS” list, approved food additives, or dietary supplements. LS180 cells were used as a model to test the effect of these phenolic compounds on the pre-systemic sulfation of PE. The cells were incubated in 0.5 ml medium with PE (50 μM)±inhibitor (100 μM) overnight. Extracellular buffer was collected and cells were extracted with methanol. PE was determined by reversed-phase HPLC with fluorescence detection. The formation of PE-sulfate was analyzed by LC-MS/MS. Results (n=3 per group) were analyzed by one-way ANOVA with Dunnett's post-test (p<0.05; Prism 5).
# [4] = tested on: human LS180 intestinal cells; assay: Inhibition of PE sulfate formation in LS180 cells; format: cell-based; conditions: PE 50 μM ± inhibitor 100 μM, overnight, LC-MS/MS, read-out: PE-sulfate formation inhibited to (control=100%)
# Excerpt: The inhibitors which can be used in the practice of the invention are wide ranging. Tables 1 and 2 show results with a number of different compounds which can function as inhibitors of SULT, MAO, CYP, COMT or UGT enzymes, or which otherwise may be used to increase the bioavailability of the exemplary bioactive phenylephrine. […] In Tables 1 and 2, human LS180 intestinal cells were used for screening the inhibition of PE metabolism. For the experiment which produced the results in Table 1, the concentration of PE was […]; the concentration of vitamin C (where present) was 1 mM; the total concentration of other inhibitors was 100 μM. Cells were incubated at 37° C. for 14 to 17.5 hours, as indicated. […] The residue is re-suspended in 35 μl water and analyzed by HPLC. All the samples are analyzed for PE by HPLC with a phenyl column (150×3.2 mm, 5 μm, 55° C.) at the flow rate of […] (20% methanol and 80% (aqueous 1% acetic acid)) and detected by fluorescence (excitation 270 nm, emission 305 nm). […]
# Phenolic compounds were selected from FDA's “GRAS” list, approved food additives, or dietary supplements. […] PE was determined by reversed-phase HPLC with fluorescence detection. The formation of PE-sulfate was analyzed by LC-MS/MS. Results (n=3 per group) were analyzed by one-way ANOVA with Dunnett's post-test (p<0.05; Prism 5).
# [5] = Biopharmaceutical Classification System (BCS) classification; conditions: high permeability, high aqueous solubility
# Excerpt: Interpreting the data published by Hengstmann, the mass balance of total radioactivity excreted into urine following an oral dose was 92% of what was recovered following an intravenous dose, so that phenylephrine would therefore be considered a “high permeability” compound. (Hengstmann and Goronzy, 1982; Amidon et al., 1995) Combining this with its high aqueous solubility, phenylephrine would be classified as a Biopharmaceutical Classification System (BCS) class 1 compound. […] (Amidon et al., 1995; Wu and Benet, 2005) Therefore, to improve the oral bioavailability of PE, a metabolism-targeted approach would be most useful.
# [6] = cited from earlier work
# [7] = Fenaroli, 2010; cited from earlier work
# [8] = resveratrol 25 μM, inhibitor 100 μM, LS180 cells, incubation 4 hr
# [9] = 2-ME 10 μM, inhibitor 100 μM, incubation time 1 hr (table), read-out: Extent of 2-ME Disappearance (as % of control)
# [10] = 2-ME 10 μM, inhibitor 100 μM, incubation time 1 hr (table)
# [11] = resveratrol 25 μM, inhibitor 100 μM, LS180 cells
# [12] = PE 50 μM ± inhibitor 100 μM, LS180 cells, overnight, n=3, control=503±127 pmol/hr, read-out: extent of disappearance of PE (mean±SD, as % of control)
# [13] = PE 50 μM, inhibitors total 100 μM (ascorbic acid 1 mM), LS180 cells, incubation 17 hr, read-out: Extent of PE Disappearance (as % of control)
# [14] = PE 50 μM, LS180 cells, overnight
# [15] = PE 50 μM, inhibitors total 100 μM, LS180 cells, incubation 19 hr, read-out: Extent of PE Disappearance (as % of control)
# [16] = PE 50 μM, inhibitors total 100 μM, LS180 cells, incubation 17.5 hr, read-out: Extent of PE Disappearance (as % of control)
# [17] = PE 50 μM, inhibitors total 100 μM (ascorbic acid 1 mM), LS180 cells, incubation 14 hr, read-out: Extent of PE Disappearance (as % of control)
smiles,measurement,setting,value
O=C(O)/C=C/c1ccc(O)c(O)c1 [caffeic acid],activity at 100 µM,LS180 cells [1]; [8],91.1%
same,activity at 100 µM,LS180 cells [2]; [9],93.3%
O=CC=Cc1ccccc1 [cinnamaldehyde],Extent of 2-ME Disappearance (as % of control),LS180 cells [2]; [10],93.9%
same,activity at 100 µM,LS180 cells [2]; [9],87.6%
O=C(O)C=Cc1ccccc1 [cinnamic acid],activity at 100 µM,LS180 cells [1]; [8],16.3%
same,inhibition of resveratrol metabolism (in words),LS180 cells [1]; [11],significant inhibition
COc1cc(/C=C/C(=O)CC(=O)/C=C/c2ccc(O)c(OC)c2)ccc1O [curcumin],activity at 100 µM,[3]; [12],24 ± 24%
same,activity at 100 µM,[3]; [13],24.5%
CCOc1cc(C=O)ccc1O [ethylvanillin],activity at 100 µM,[3]; [13],76.5%
same,activity at 100 µM,LS180 cells [1]; [8],8.1%
same,inhibition of resveratrol metabolism (in words),LS180 cells [1]; [11],greatest extent of inhibition
C=CCc1ccc(O)c(OC)c1 [eugenol],activity at 100 µM,"[3]; LS180, 17.5 h, read-out: Extent of PE Disappearance (as % of control)",133%
same,effect on PE disappearance / PE metabolism (in words),[3]; [14],failed to inhibit PE metabolism alone; also recorded: no significant effect on PE disappearance
same,activity at 100 µM,"LS180 cells [1]; LS180, 4 h",38.3%
same,inhibition of resveratrol metabolism (in words),LS180 cells [1]; [11],significant inhibition
same,inhibition of 2ME metabolism (in words),"LS180 cells [2]; 2-ME 10 μM, inhibitor 100 μM",Significant inhibition
same,Extent of 2-ME Disappearance (as % of control),LS180 cells [2]; [10],33.9%
same,activity at 100 µM,"LS180 cells [2]; read-out: Extent of 2-ME Disappearance (as % of control), 2-ME 10 μM, inhibitor 100 μM, incubation time 1 hr (table)",21.2%
COc1cc(/C=C/C(=O)O)ccc1O [ferulic acid],activity at 100 µM,LS180 cells [1]; [8],100%
same,activity at 100 µM,LS180 cells [2]; [9],102%
O=C(O)c1cc(O)c(O)c(O)c1 [gallic acid],activity at 100 µM,LS180 cells [2]; [9],102%
COc1ccccc1O [guaiacol],activity at 100 µM,[3]; [12],51 ± 14%
same,activity at 100 µM,"[3]; PE 50 μM, inhibitors total 100 μM, LS180 cells, incubation 18.5 hr, read-out: Extent of PE Disappearance (as % of control)",51.3%
same,activity at 100 µM,[4],33 ± 7%
CC=Cc1ccc(O)c(OC)c1 [isoeugenol],activity at 100 µM,[3]; [12],74 ± 8%
same,activity at 100 µM,[3]; [15],73.9%
COC(=O)c1ccc(O)cc1 [methylparaben],activity at 100 µM,[3]; [13],75.9%
same,activity at 100 µM,LS180 cells [1]; [8],0.4%
same,inhibition of resveratrol metabolism (in words),LS180 cells [1]; [11],greatest extent of inhibition
C[C@@H]1O[C@@H](O[C@H]2[C@H](Oc3cc(O)c4c(c3)O[C@H](c3ccc(O)cc3)CC4=O)O[C@H](CO)[C@@H](O)[C@@H]2O)[C@H](O)[C@H](O)[C@H]1O [naringin],activity at 100 µM,[3]; [16],75.7%
CNC[C@H](O)c1cccc(O)c1 [phenylephrine],Biopharmaceutical Classification System (BCS) class,[5],class 1
same,"total radioactivity excreted into urine following an oral dose, relative to intravenous dose","[6]; mass balance, oral vs intravenous, Hengstmann data",92%
same,oral bioavailability,[6]; oral,< 38%
O=C(/C=C/C=C/c1ccc2c(c1)OCO2)N1CCCCC1 [piperine],activity at 100 µM,LS180 cells [1]; [8],26.4%
CCCOC(=O)c1cc(O)c(O)c(O)c1 [propyl gallate],activity at 100 µM,[3]; [17],114%
same,effect on PE disappearance / PE metabolism (in words),[3]; [14],no significant effect on PE disappearance
same,activity at 100 µM,LS180 cells [1]; [8],51.2%
same,inhibition of resveratrol metabolism (in words),LS180 cells [1]; [11],significant inhibition
same,inhibition of 2ME metabolism (in words),"LS180 cells [2]; 2-ME 10 μM, inhibitor 100 μM",Significant inhibition
same,Extent of 2-ME Disappearance (as % of control),LS180 cells [2]; [10],50.4%
same,activity at 100 µM,LS180 cells [2]; [9],42.8%
CCCOC(=O)c1ccc(O)cc1 [propylparaben],activity at 100 µM,[3]; [17],53.8%
same,activity at 100 µM,LS180 cells [1]; [8],57.8%
same,inhibition of resveratrol metabolism (in words),LS180 cells [1]; [11],significant inhibition
same,inhibition of 2ME metabolism (in words),"LS180 cells [2]; 2-ME 10 μM, inhibitor 100 μM",Significant inhibition
same,Extent of 2-ME Disappearance (as % of control),LS180 cells [2]; [10],57.7%
same,activity at 100 µM,LS180 cells [2]; [9],51.7%
COc1cc(/C=C/c2ccc(O)cc2)cc(OC)c1 [pterostilbene],activity at 100 µM,[3]; [12],71 ± 7%
same,activity at 100 µM,[3]; [15],70.6%
O=c1c(O)c(-c2ccc(O)c(O)c2)oc2cc(O)cc(O)c12 [quercetin],activity at 100 µM,[3]; [16],48.7%
Oc1ccc(C=Cc2cc(O)cc(O)c2)cc1 [resveratrol],activity at 100 µM,[3]; [12],14 ± 48%
same,activity at 100 µM,[3]; [16],14.2%
COc1cc(/C=C/C(=O)O)cc(OC)c1O [sinapic acid],activity at 100 µM,LS180 cells [1]; [8],86.1%
same,activity at 100 µM,LS180 cells [2]; [9],88.1%
COc1cc(C(=O)O)ccc1O [vanillic acid],activity at 100 µM,LS180 cells [1]; [8],103%
same,activity at 100 µM,LS180 cells [2]; [9],99.1%
COc1cc(C=O)ccc1O [vanillin],activity at 100 µM,[3]; [17],90.2%
same,effect on PE disappearance / PE metabolism (in words),[3]; [14],failed to inhibit PE metabolism alone; also recorded: no significant effect on PE disappearance
same,activity at 100 µM,LS180 cells [1]; [8],44.8%
same,inhibition of resveratrol metabolism (in words),LS180 cells [1]; [11],significant inhibition
same,inhibition of 2ME metabolism (in words),"LS180 cells [2]; 2-ME 10 μM, inhibitor 100 μM",Significant inhibition
same,Extent of 2-ME Disappearance (as % of control),LS180 cells [2]; [10],39.4%
same,activity at 100 µM,LS180 cells [2]; [9],51.2%
same,acceptable daily intake,[7],10 mg/kg/day
COc1cc(CCC(C)=O)ccc1O [zingerone],activity at 100 µM,[3]; [12],52 ± 25%
same,activity at 100 µM,[3]; [13],52.4%
same,activity at 100 µM,LS180 cells [1]; [8],83.7%
